Assay results: patent publication US8999957B2, “Heterocyclic compounds as ERK inhibitors” (Merck Sharp & Dohme Corp., priority 2010, dated 2015)
Read-outs that look alike come from different tables or passages of the source.

Experiments:
[1] = molecular target: fully phosphorylated, mouse aERK2 enzyme (Mus musculus (Mouse), UniProt P63085); test: Active ERK2 (aERK) IMAP-FP assay, condition 2; assay type: biochemical
Experimental: (§1) Active ERK2 (aERK) Assay: (Unless Indicated Otherwise, the Data Provided for aERK was obtained using Condition 1)
Activated ERK2 activity was determined in an IMAP-FP assay (Molecular Devices). […] Phosphorylation reactions were allowed to proceed for 40-45 minutes and were immediately quenched by the addition of 60 μL IMAP detection beads (1:1000 dilutions) in IMAP binding buffer. Plates were read on EnVision reader after 30 minutes binding equilibration.

[2] = molecular target: fully phosphorylated, active Mouse ERK2 protein (Mus musculus (Mouse), UniProt P63085); test: Active ERK2 (aERK) IMAP assay, condition 1; assay type: biochemical; settings: aERK assay condition 1, 30 μM ATP
Sequence of fully phosphorylated, active Mouse ERK2 protein (P63085 whole entry): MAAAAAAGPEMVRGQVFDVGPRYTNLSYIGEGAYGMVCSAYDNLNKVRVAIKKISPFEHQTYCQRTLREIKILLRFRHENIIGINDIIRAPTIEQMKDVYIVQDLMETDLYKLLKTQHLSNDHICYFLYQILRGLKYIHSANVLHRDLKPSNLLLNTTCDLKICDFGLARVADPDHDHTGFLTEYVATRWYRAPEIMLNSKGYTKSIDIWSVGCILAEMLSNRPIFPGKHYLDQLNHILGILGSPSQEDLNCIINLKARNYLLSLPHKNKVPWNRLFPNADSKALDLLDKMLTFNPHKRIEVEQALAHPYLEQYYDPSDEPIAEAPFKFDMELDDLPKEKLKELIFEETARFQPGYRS
Experimental: as §1
Activated ERK2 activity was also determined in the IMAP assay format using the procedure outlined above. […] Reactions proceeded for 30 minutes before termination by addition of 60 μl IMAP detection beads in binding buffer. Plates were read as above after 30 minute binding equilibration.

[3] = active ERK2, read-out: aErk2 Ic50

Sequence of fully phosphorylated, mouse aERK2 enzyme (P63085 whole entry): as above

IC50 [2] [nM]	Structure (SMILES)	further results
21.1	Cn1cc(-c2n[nH]c3ccc(C(=O)N[C@@H]4CCCN(Cc5ccccc5F)C4)cc23)ccc1=O	–
170	Cc1cc(-c2n[nH]c3ccc(C(=O)N[C@@H]4CCCN(CC(F)(F)c5ccccc5F)C4)cc23)ccn1	–
76.5	Cc1cc(-c2n[nH]c3ccc(C(=O)N[C@@H]4CCCN(CC(F)(F)c5ccccc5)C4)cc23)ccn1	–
12.9	O=C(NC1CCCCN(CCc2cccc3ccccc23)C1)c1ccc2[nH]nc(-c3ccncc3)c2c1 (stereo not shown)	–
13.4	O=C(NC1CCCCN(CCc2cccc(F)c2)C1)c1ccc2[nH]nc(-c3ccncc3)c2c1 (stereo not shown)	–
28.2	COc1cccc(F)c1CN1CCC[C@@H](NC(=O)c2ccc3[nH]nc(-c4ccc5ncsc5c4)c3c2)C1	–
50.1	O=C(N[C@@H]1CCCN(Cc2ncon2)C1)c1ccc2[nH]nc(-c3ccncc3)c2c1	–
127	O=C(NC1CN(Cc2ccccc2F)CC(F)(F)C1)c1ccc2[nH]nc(-c3ccncc3)c2c1 (stereo not shown)	–
144	O=C(NC1CN(Cc2ccccc2)CC(F)(F)C1)c1ccc2[nH]nc(-c3ccncc3)c2c1 (stereo not shown)	–
98.1	O=C(NC1CCCCN(CCc2ccc(F)cc2)C1)c1ccc2[nH]nc(-c3ccncc3)c2c1 (stereo not shown)	–
133	COC(=O)[C@H]1CC[C@@H](NC(=O)c2ccc3[nH]nc(-c4ccncc4)c3c2)CN1Cc1ccccc1	–
34.8	O=C(CN1CCCCC(NC(=O)c2ccc3[nH]nc(-c4ccncc4)c3c2)C1)c1ccccc1 (stereo not shown)	–
301	COc1cccc(F)c1CN1CCC[C@@H](NC(=O)c2ccc3[nH]nc(-c4ccc5nonc5c4)c3c2)C1	–
8.34	CN1CC(Cc2ccccc2)CC(NC(=O)c2ccc3[nH]nc(-c4ccncc4)c3c2)C1 (stereo not shown)	–
48.3	CCNC(=O)[C@@H]1CC[C@@H](NC(=O)c2ccc3[nH]nc(-c4ccncc4)c3c2)CN1Cc1ccccc1 [drawing 353]	–
2.41	CNC(=O)[C@@H]1CC[C@@H](NC(=O)c2ccc3[nH]nc(-c4ccncc4)c3c2)CN1Cc1c(F)cccc1OC [drawing 383]	–

The next lines start with the compound.

Structure (SMILES)	IC50 [2] [nM]	further results
O=C(N[C@@H]1CCCN(CC2CC2)C1)c1ccc2[nH]nc(-c3ccncc3)c2c1	–	IC50 ([1]; aERK assay condition 2, 30 uM ATP, read-out: aERK IC50): 206 nM
CC(C)Oc1ccc(-c2n[nH]c3ccc(C(=O)N[C@@H]4CNC[C@H](c5ccccc5)C4)cc23)cc1	45.1	–
COc1cccc(F)c1CN1CCCC(NC(=O)c2ccc3[nH]nc(-c4ccnc(C)c4)c3c2)C1C (stereo not shown)	66.9	–
CCc1nnc2ccc(-c3n[nH]c4ccc(C(=O)N[C@@H]5CCCN(Cc6c(F)cccc6OC)C5)cc34)cn12	70.9	–
CN1CC(NC(=O)c2ccc3[nH]nc(-c4ccc5nccn5c4)c3c2)CCC1C1CC1 (stereo not shown)	395	–
COc1cccc(F)c1CN1CC(NC(=O)c2ccc3[nH]nc(-c4ccc5nccn5c4)c3c2)CCC1C1CC1 (stereo not shown)	49.3	–
COc1cccc(F)c1CN1CCC[C@@H](NC(=O)c2ccc3[nH]nc(-c4ccc5nsnc5c4)c3c2)C1	175	–
COc1cccc(F)c1CN1CCC[C@@H](NC(=O)c2ccc3[nH]nc(-c4ccc5nc(C(F)(F)F)nn5c4)c3c2)C1	822	–
COc1cccc(F)c1CN1CCC[C@@H](NC(=O)c2ccc3[nH]nc(-c4nc5ccccc5s4)c3c2)C1	296	–
CN1CC(Cc2c(F)cccc2F)CC(NC(=O)c2ccc3[nH]nc(-c4ccc5nn(C)cc5c4)c3c2)C1 (stereo not shown)	1.4	–
CCN1CC(Cc2c(F)cccc2F)CC(NC(=O)c2ccc3[nH]nc(-c4ccc5nn(C)cc5c4)c3c2)C1 (stereo not shown)	3.09	–
Cc1nc2ccc(-c3n[nH]c4ccc(C(=O)N[C@@H]5C[C@H](Cc6c(F)cccc6F)CN(C)C5)cc34)cn2n1	1.45	–
Cc1nc2ccc(-c3n[nH]c4ccc(C(=O)N[C@@H]5C[C@@H](Cc6c(F)cccc6F)CN(C)C5)cc34)cn2n1	47.6	–
CN1C[C@H](Cc2c(F)cccc2F)C[C@H](NC(=O)c2ccc3[nH]nc(-c4ccn5ccnc5c4)c3c2)C1	1.59	–
CN1C[C@@H](Cc2c(F)cccc2F)C[C@H](NC(=O)c2ccc3[nH]nc(-c4ccn5ccnc5c4)c3c2)C1	150	–
CN1CC(Cc2c(F)cccc2F)CC(NC(=O)c2ccc3[nH]nc(-c4ccn5ncnc5c4)c3c2)C1 (stereo not shown)	3.83	–
CN1C[C@@H](Cc2c(F)cccc2F)C[C@@H](NC(=O)c2ccc3[nH]nc(-c4ccc5nonc5c4)c3c2)C1	8.82	–
CN1C[C@H](Cc2c(F)cccc2F)C[C@@H](NC(=O)c2ccc3[nH]nc(-c4ccc5nonc5c4)c3c2)C1	1000	–

Structure (SMILES)	IC50 [2] [nM]	further results
CN1CC(Cc2c(F)cccc2F)CC(NC(=O)c2ccc3[nH]nc(-c4nc5ccccc5s4)c3c2)C1 (stereo not shown)	22.4	–
CN1CC(Cc2c(F)cccc2F)CC(NC(=O)c2ccc3[nH]nc(-c4ccc5ncsc5c4)c3c2)C1 (stereo not shown)	2.71	–
CN1CC(Cc2c(F)cccc2F)CC(NC(=O)c2ccc3[nH]nc(-c4ccc5nsnc5c4)c3c2)C1 (stereo not shown)	3.23	–
Cn1cc2cc(-c3n[nH]c4ccc(C(=O)N[C@H]5CCN[C@H](Cc6ccccc6)C5)cc34)ccc2n1	33.8	–
COc1cccc(F)c1CN1C[C@H](NC(=O)c2ccc3[nH]nc(-c4ccnc(C)c4)c3c2)CC[C@H]1C(=O)NC1CCCC1	–	IC50 [1, 3]: 105 nM
COc1cccc(F)c1CN1C[C@H](NC(=O)c2ccc3[nH]nc(-c4ccc5nn(C)cc5c4)c3c2)CC[C@H]1C(=O)Nc1nccs1	–	IC50 [1, 3]: 113 nM
CCN(CC)C(=O)[C@@H]1CC[C@@H](NC(=O)c2ccc3[nH]nc(-c4ccnc(C)c4)c3c2)CN1Cc1cccs1	–	IC50 [1, 3]: 28.2 nM
COc1cccc(F)c1CN1C[C@H](NC(=O)c2ccc3[nH]nc(-c4ccc5nn(C)cc5c4)c3c2)CC[C@H]1C(=O)N1CC(F)(F)C1	–	IC50 [1, 3]: 22.8 nM
[2H]C([2H])([2H])Oc1cccc(F)c1CN1C[C@H](NC(=O)c2ccc3[nH]nc(-c4ccc5nc(C)sc5c4)c3c2)CC[C@H]1C(=O)N1CCN(C(C)=O)CC1	–	IC50 [1, 3]: 63.1 nM
CCN(CC)C(=O)[C@@H]1CC[C@@H](NC(=O)c2ccc3[nH]nc(-c4ccc5nn(C)cc5c4)c3c2)CN1Cc1c(F)cccc1OC	–	IC50 [1, 3]: 39.4 nM
COc1cccc(F)c1CN1C[C@H](NC(=O)c2ccc3[nH]nc(-c4ccc5nn(C)cc5c4)c3c2)CC[C@H]1C(=O)N(C)C	–	IC50 [1, 3]: 15.9 nM
[2H]C([2H])([2H])Oc1cccc(F)c1CN1C[C@H](NC(=O)c2ccc3[nH]nc(-c4ccc5nc(C)sc5c4)c3c2)CC[C@H]1C(=O)N1CCN(C(=O)OC(C)(C)C)CC1	–	IC50 [1, 3]: 72.8 nM
[2H]C([2H])([2H])Oc1cccc(F)c1CN1C[C@H](NC(=O)c2ccc3[nH]nc(-c4ccnc(C)c4)c3c2)CC[C@H]1C(=O)N1CCN(C(=O)OC(C)(C)C)CC1	–	IC50 [1, 3]: 12.2 nM
Cc1cc(-c2n[nH]c3ccc(C(=O)NC4CC(Cc5c(F)cccc5F)CN(C)C4)cc23)ccn1 (stereo not shown) [N-(5-(2,6-difluorobenzyl)-1-methylpiperidin-3-yl)-3-(2-methylpyridin-4-yl)-1H-indazole-5-carboxamide]	4.8	–
COc1cccc(F)c1CN1C[C@H](NC(=O)c2ccc3[nH]nc(-c4ccnc(C)c4)c3c2)CC[C@H]1C(=O)N1CCC(O)CC1 [N-{(3R,6S)-1-(2-fluoro-6-methoxybenzyl)-6-[(4-hydroxypiperidin-1-yl)carbonyl]piperidin-3-yl}-3-(2-methylpyridin-4-yl)-1H-indazole-5-carboxamide]	14.6	–
COc1cccc(F)c1CN1C[C@H](NC(=O)c2ccc3[nH]nc(-c4ccc5nccn5c4)c3c2)C[C@H](C(F)(F)F)C1 [drawing 317]	18	–
O=C(N[C@@H]1CC[C@@H](C(=O)NCc2ccccc2)N(Cc2ccccc2)C1)c1ccc2[nH]nc(-c3ccncc3)c2c1 [drawing 352]	47.5	–
COc1cccc(F)c1CN1C[C@H](NC(=O)c2ccc3[nH]nc(-c4ccc5nccn5c4)c3c2)C[C@H](C(F)(F)F)C1 [drawing 377]	4.46	–
